The values below come from the supplement of paper PMC11208160.

This data set can be described thus: recombinant barcode read abundance after kanamycin selection (control-corrected) (log10(CPM+1)); higher = more efficient recombination; sequences stand for … in AGTGCAGAGAAAATCGGCCAGTTTTCTCTGCCTGCAGTCCGCATGCCGT…ATTTATGCAGCGGACTGCCTTTCTCCCAAAGTGATAAACCGGACAGTATCATGGACCGGTTTTCCCGGTAATCCGTATTTGCAAGGTTGGTTTCACT; site = the 11-nt target. Summed up:
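The screen was pooled in E. coli and paired targets with IS621 bridge RNA target-binding loops. Recombination efficiency is taken from barcode counts per million at recombinant junctions, averaged and adjusted against the control. Values, in the form log10(CPM+1), come from duplicate plating on chloramphenicol/ampicillin LB agar or on chloramphenicol/ampicillin/kanamycin with 0.1 mM IPTG.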
For “GAGCCCACTTGGGTTCTAACCTGTTGCCTAA [GAGCCCACTAG_LTGcore_CT_RTGcore_TT] (site GAGCCCACTAG) (LTG core: CT, RTG core: TT)”, the “recombinant barcode read abundance (log10)” value turned out to be 0.912.

On to “GAGCCCACTTGGGTTCTAACCTGTTGCCTAC [GAGCCCACTAG_LTGcore_CT_RTGcore_GT] (site GAGCCCACTAG) (LTG core: CT, RTG core: GT)”, for which the “recombinant barcode read abundance (log10)” value amounted to 0.369. For “GAGCCCACTTGGGTTCTAACCTGTTGCCTAG [GAGCCCACTAG_LTGcore_CT_RTGcore_CT] (site GAGCCCACTAG) (LTG core: CT, RTG core: CT)”, the “recombinant barcode read abundance (log10)” value amounted to 1.45.

With “GAGCCCACTTGGGTTCTAACCTGTTGCCTCT [GAGCCCACTAG_LTGcore_CT_RTGcore_AG] (site GAGCCCACTAG) (LTG core: CT, RTG core: AG)”, the “recombinant barcode read abundance (log10)” value is 0. As for “GAGCCCACTTGGGTTCTAACCTGTTGCCTTG [GAGCCCACTAG_LTGcore_CT_RTGcore_CA] (site GAGCCCACTAG) (LTG core: CT, RTG core: CA)”, the “recombinant barcode read abundance (log10)” value stood at 0.835. “GAGCCCACTTGGGTTCTAACCTGTTGCCTTT [GAGCCCACTAG_LTGcore_CT_RTGcore_AA] (site GAGCCCACTAG) (LTG core: CT, RTG core: AA)”: the “recombinant barcode read abundance (log10)” value stood at 0.37. Consider “GAGCCCAGGTGGGTTCTAACCTGTTGCCTCC [GAGCCCACTAG_LTGcore_GG_RTGcore_GG] (site GAGCCCACTAG) (LTG core: GG, RTG core: GG)”, for which the “recombinant barcode read abundance (log10)” value amounted to 0.596. For “GAGCCCAGTTGGGTTCTAACCTGTTGCCTAC [GAGCCCACTAG_LTGcore_GT_RTGcore_GT] (site GAGCCCACTAG) (LTG core: GT, RTG core: GT)”, the “recombinant barcode read abundance (log10)” value was determined as 0.0734. As to “GAGGCCTAATGGGTTCTAACCTGTTGCCATT [GAGGCCTCTTG_LTGcore_AA_RTGcore_AA] (site GAGGCCTCTTG) (LTG core: AA, RTG core: AA)”, the “recombinant barcode read abundance (log10)” value was 0.223.

In the case of “GAGGCCTACTGGGTTCTAACCTGTTGCCAAG [GAGGCCTCTTG_LTGcore_AC_RTGcore_CT] (site GAGGCCTCTTG) (LTG core: AC, RTG core: CT)”, the “recombinant barcode read abundance (log10)” value is 0.0351.

With “GAGGCCTACTGGGTTCTAACCTGTTGCCAGT [GAGGCCTCTTG_LTGcore_AC_RTGcore_AC] (site GAGGCCTCTTG) (LTG core: AC, RTG core: AC)”, the “recombinant barcode read abundance (log10)” value was found to be 0.0631. For the sequence “GAGGCCTATTGGGTTCTAACCTGTTGCCAAG [GAGGCCTCTTG_LTGcore_AT_RTGcore_CT] (site GAGGCCTCTTG) (LTG core: AT, RTG core: CT)”, the “recombinant barcode read abundance (log10)” value stood at 0.196. On to “GAGGCCTATTGGGTTCTAACCTGTTGCCAAT [GAGGCCTCTTG_LTGcore_AT_RTGcore_AT] (site GAGGCCTCTTG) (LTG core: AT, RTG core: AT)”, for which the “recombinant barcode read abundance (log10)” value was found to be 0.122. Turning to “GAGGCCTCATGGGTTCTAACCTGTTGCCAAG [GAGGCCTCTTG_LTGcore_CA_RTGcore_CT] (site GAGGCCTCTTG) (LTG core: CA, RTG core: CT)”, the “recombinant barcode read abundance (log10)” value is 0.318.

Turning to “GAGGCCTGATGGGTTCTAACCTGTTGCCAAG [GAGGCCTCTTG_LTGcore_GA_RTGcore_CT] (site GAGGCCTCTTG) (LTG core: GA, RTG core: CT)”, the “recombinant barcode read abundance (log10)” value was 0.0459. The figure for “GAGGCCTGCTGGGTTCTAACCTGTTGCCAAG [GAGGCCTCTTG_LTGcore_GC_RTGcore_CT] (site GAGGCCTCTTG) (LTG core: GC, RTG core: CT)” is 0.235; for “GAGGCCTGTTGGGTTCTAACCTGTTGCCAAG [GAGGCCTCTTG_LTGcore_GT_RTGcore_CT] (site GAGGCCTCTTG) (LTG core: GT, RTG core: CT)” it is 0.586; for “GAGGCCTTATGGGTTCTAACCTGTTGCCAAG [GAGGCCTCTTG_LTGcore_TA_RTGcore_CT] (site GAGGCCTCTTG) (LTG core: TA, RTG core: CT)” it is 0.145.

In the case of “GAGGCCTTGTGGGTTCTAACCTGTTGCCAAG [GAGGCCTCTTG_LTGcore_TG_RTGcore_CT] (site GAGGCCTCTTG) (LTG core: TG, RTG core: CT)”, the “recombinant barcode read abundance (log10)” value is 0.0876. The figure for “GAGTCCAACTGGGTTCTAACCTGTTGCGTAG [GAGTCCACTAC_LTGcore_AC_RTGcore_CT] (site GAGTCCACTAC) (LTG core: AC, RTG core: CT)” is 0.282. On to “GAGTCCAAGTGGGTTCTAACCTGTTGCGTAG [GAGTCCACTAC_LTGcore_AG_RTGcore_CT] (site GAGTCCACTAC) (LTG core: AG, RTG core: CT)”, for which the “recombinant barcode read abundance (log10)” value came out at 0.075. For “GAGTCCACATGGGTTCTAACCTGTTGCGTAG [GAGTCCACTAC_LTGcore_CA_RTGcore_CT] (site GAGTCCACTAC) (LTG core: CA, RTG core: CT)” the value was 0.829. As for “GAGTCCACTTGGGTTCTAACCTGTTGCGTAC [GAGTCCACTAC_LTGcore_CT_RTGcore_GT] (site GAGTCCACTAC) (LTG core: CT, RTG core: GT)”, the “recombinant barcode read abundance (log10)” value was determined as 0.0332.

As for “GAGTCCACTTGGGTTCTAACCTGTTGCGTCA [GAGTCCACTAC_LTGcore_CT_RTGcore_TG] (site GAGTCCACTAC) (LTG core: CT, RTG core: TG)”, the “recombinant barcode read abundance (log10)” value was determined as 0.0372.

“GAGTCCACTTGGGTTCTAACCTGTTGCGTGC [GAGTCCACTAC_LTGcore_CT_RTGcore_GC] (site GAGTCCACTAC) (LTG core: CT, RTG core: GC)”: the “recombinant barcode read abundance (log10)” value was determined as 0.0181.

In the case of “GAGTCCACTTGGGTTCTAACCTGTTGCGTGG [GAGTCCACTAC_LTGcore_CT_RTGcore_CC] (site GAGTCCACTAC) (LTG core: CT, RTG core: CC)”, the “recombinant barcode read abundance (log10)” value is 0.0805. As to “GAGTCCACTTGGGTTCTAACCTGTTGCGTTA [GAGTCCACTAC_LTGcore_CT_RTGcore_TA] (site GAGTCCACTAC) (LTG core: CT, RTG core: TA)”, the “recombinant barcode read abundance (log10)” value came out at 0.102.

Consider “GAGTCCACTTGGGTTCTAACCTGTTGCGTTC [GAGTCCACTAC_LTGcore_CT_RTGcore_GA] (site GAGTCCACTAC) (LTG core: CT, RTG core: GA)”, for which the “recombinant barcode read abundance (log10)” value was determined as 0.671.

For the sequence “GAGTCCAGATGGGTTCTAACCTGTTGCGTTC [GAGTCCACTAC_LTGcore_GA_RTGcore_GA] (site GAGTCCACTAC) (LTG core: GA, RTG core: GA)”, the “recombinant barcode read abundance (log10)” value was determined as 0.157. Turning to “GAGTCCAGTTGGGTTCTAACCTGTTGCGTAC [GAGTCCACTAC_LTGcore_GT_RTGcore_GT] (site GAGTCCACTAC) (LTG core: GT, RTG core: GT)”, the “recombinant barcode read abundance (log10)” value was 0.0422. The figure for “GAGTCCATATGGGTTCTAACCTGTTGCGTAG [GAGTCCACTAC_LTGcore_TA_RTGcore_CT] (site GAGTCCACTAC) (LTG core: TA, RTG core: CT)” is 0.0591. Turning to “GAGTCCATGTGGGTTCTAACCTGTTGCGTAG [GAGTCCACTAC_LTGcore_TG_RTGcore_CT] (site GAGTCCACTAC) (LTG core: TG, RTG core: CT)”, the “recombinant barcode read abundance (log10)” value is 0.0936. For “GAGTCCTAGTGGGTTCTAACCTGTTGCCTCT [GAGTCCTCTAG_LTGcore_AG_RTGcore_AG] (site GAGTCCTCTAG) (LTG core: AG, RTG core: AG)” the value was 0.0613; for “GAGTCCTCTTGGGTTCTAACCTGTTGCCTAC [GAGTCCTCTAG_LTGcore_CT_RTGcore_GT] (site GAGTCCTCTAG) (LTG core: CT, RTG core: GT)”, 1.02; for “GAGTCCTCTTGGGTTCTAACCTGTTGCCTCT [GAGTCCTCTAG_LTGcore_CT_RTGcore_AG] (site GAGTCCTCTAG) (LTG core: CT, RTG core: AG)”, 1.65.

For the sequence “GAGTCCTCTTGGGTTCTAACCTGTTGCCTGG [GAGTCCTCTAG_LTGcore_CT_RTGcore_CC] (site GAGTCCTCTAG) (LTG core: CT, RTG core: CC)”, the “recombinant barcode read abundance (log10)” value stood at 1.39. On to “GAGTCCTCTTGGGTTCTAACCTGTTGCCTTG [GAGTCCTCTAG_LTGcore_CT_RTGcore_CA] (site GAGTCCTCTAG) (LTG core: CT, RTG core: CA)”, for which the “recombinant barcode read abundance (log10)” value came to 0.753. The figure for “GAGTCCTGATGGGTTCTAACCTGTTGCCTAG [GAGTCCTCTAG_LTGcore_GA_RTGcore_CT] (site GAGTCCTCTAG) (LTG core: GA, RTG core: CT)” is 0.62.

As for “GAGTCCTGATGGGTTCTAACCTGTTGCCTTC [GAGTCCTCTAG_LTGcore_GA_RTGcore_GA] (site GAGTCCTCTAG) (LTG core: GA, RTG core: GA)”, the “recombinant barcode read abundance (log10)” value was found to be 0.149. For “GAGTCCTGGTGGGTTCTAACCTGTTGCCTCC [GAGTCCTCTAG_LTGcore_GG_RTGcore_GG] (site GAGTCCTCTAG) (LTG core: GG, RTG core: GG)” the value was 0.0289; for “GAGTCCTTTTGGGTTCTAACCTGTTGCCTAA [GAGTCCTCTAG_LTGcore_TT_RTGcore_TT] (site GAGTCCTCTAG) (LTG core: TT, RTG core: TT)”, 0.219. Take “GAGTCCTTTTGGGTTCTAACCTGTTGCCTAG [GAGTCCTCTAG_LTGcore_TT_RTGcore_CT] (site GAGTCCTCTAG) (LTG core: TT, RTG core: CT)”: the “recombinant barcode read abundance (log10)” value came to 0.153. “GCGCGACAGTGGGTTCTAACCTGTTGCTTAG [GCGCGACCTAA_LTGcore_AG_RTGcore_CT] (site GCGCGACCTAA) (LTG core: AG, RTG core: CT)”: the “recombinant barcode read abundance (log10)” value was determined as 0.642.
